Structures are written as SMILES.

The target in one data set is human A2a receptor (Homo sapiens, UniProt P29274). Kind of data set: Adenosine antagonistic activity, radioligand binding with [3H]CGS 21680. The note with it: [3H]CGS 21680 20 nM. As to the method:
(§1) The adenosine antagonistic activity [Ki(nM)] of the test compound was examined by radioligand binding techniques using 8-cyclopentyl-1,3-dipropylxanthine, [dipropyl-2,3-^3H(N)] ([^3H]DPCPX, 4.5 nM) for human A1 receptor and [^3H]CGS 21680 (20 nM) for human A2a receptor.

A further data set deals with T1, human A1 receptor (Homo sapiens, UniProt P30542).
T1 sequence (P30542 1-326): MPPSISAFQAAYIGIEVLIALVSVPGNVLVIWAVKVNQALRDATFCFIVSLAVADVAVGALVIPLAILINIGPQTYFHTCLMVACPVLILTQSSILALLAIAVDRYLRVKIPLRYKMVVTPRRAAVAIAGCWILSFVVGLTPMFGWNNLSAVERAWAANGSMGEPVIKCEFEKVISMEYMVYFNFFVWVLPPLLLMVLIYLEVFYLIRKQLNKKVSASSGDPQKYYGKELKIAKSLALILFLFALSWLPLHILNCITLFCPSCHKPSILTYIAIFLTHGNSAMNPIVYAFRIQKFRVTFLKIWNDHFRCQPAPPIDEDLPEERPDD
Kind of data set: Adenosine antagonistic activity, radioligand binding with [3H]DPCPX. The note with it: [3H]DPCPX 4.5 nM. As to the method: as §1

A further data set concerns ddY mice. Nature of the data set: Anticatalepsy activity in mouse (haloperidol-induced catalepsy). Format: in vivo. The note with it: 3.2 mg/kg orally, ddY mice n=7; haloperidol 0.32 mg/kg i.p. 30 min after compound; measured 30 min after injection. The procedure: The test compound (3.2 mg/kg) was administered orally with ddY mice(n=7). Then, haloperidol (0.32 mg/kg) was injected intraperitoneally 30 min. after the administration of the compound. Thirty min. after the injection, the cataleptic responses of mice were measured. The forelimbs of each mouse were placed on a 3 cm high, 3 mm wide horizontal bar, and the duration of cataleptic posture was measured for up to 30 sec.

human A2a receptor, sequence (P29274 whole entry): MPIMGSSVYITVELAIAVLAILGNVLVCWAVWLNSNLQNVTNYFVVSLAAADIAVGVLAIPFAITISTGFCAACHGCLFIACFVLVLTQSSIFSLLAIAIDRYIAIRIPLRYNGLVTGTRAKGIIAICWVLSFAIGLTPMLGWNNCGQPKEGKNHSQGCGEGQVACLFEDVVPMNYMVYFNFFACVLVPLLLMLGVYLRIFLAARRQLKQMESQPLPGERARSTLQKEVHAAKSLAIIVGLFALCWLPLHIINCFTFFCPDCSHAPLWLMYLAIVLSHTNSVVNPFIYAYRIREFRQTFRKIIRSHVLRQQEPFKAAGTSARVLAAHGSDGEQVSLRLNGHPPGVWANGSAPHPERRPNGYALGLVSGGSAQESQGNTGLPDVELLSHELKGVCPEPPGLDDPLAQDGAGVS

Take `Nc1ncc(-c2ccc(=O)[nH]n2)c(-c2ccccc2)n1` [Example 1, 6-(2-Amino-4-phenyl-5-pyrimidinyl)-3(2H)-pyridazinone]: the melting point (usually the temperature of the solid-liquid transition) was above 280 °C. The affinity at human A2a receptor, expressed as Ki, was 3.85 nM. Affinity on human A1 receptor was put at a Ki of 11.3 nM. Also, the “Manifestation rate of catalepsy (number of mouse)” value (from here on “Manifestation rate of catalepsy”) in the data set with ddY mice was 4/7.
For the compound `CCn1nc(-c2cnc(N)nc2-c2ccccc2)ccc1=O` [Example 4, 6-(2-Amino-4-phenyl-5-pyrimidinyl)-2-ethyl-3(2H)-pyridazinone], the melting point was 255 to 256 °C. For the same compound, the Ki (in general, a measure of affinity in units of concentration, obtained from inhibition or displacement) on human A2a receptor stood at 4.35 nM. In addition, the Ki at human A1 receptor was determined as 3.14 nM. Besides, in the data set on ddY mice, the “Manifestation rate of catalepsy” value is listed as 0/7.
For `CC(=O)Nc1ncc(-c2ccc(=O)n(C(C)C)n2)c(-c2ccccc2)n1` [Example 7, N-[5-(1-Isopropyl-6-oxo-1,6-dihydro-3-pyridazinyl)-4-phenyl-2-pyrimidinyl]acetamide], the melting point was 209 to 210 °C. The compound also gave a Ki at human A2a receptor of 2.09 nM. The compound also showed an inhibition constant (Ki) on human A1 receptor of 6.47 nM. In addition, the “Manifestation rate of catalepsy” value with ddY mice was 0/7.
The corresponding values for `CC(C)n1nc(-c2cnc(NCc3ccccn3)nc2-c2ccccc2)ccc1=O` [Example 18, 2-Isopropyl-6-{4-phenyl-2-[(2-pyridinylmethyl)amino]-5-pyrimidinyl}-3(2H)-pyridazinone] are 143 to 144.5 °C, 7.38 nM, 10.8 nM and 0/7.
`CC(C)n1nc(-c2cnc(N)nc2-c2ccco2)ccc1=O` [Example 47, 6-[2-Amino-4-(2-furyl)-5-pyrimidinyl]-2-isopropyl-3(2H)-pyridazinone] returned a melting point of 215 °C. The Ki on human A2a receptor was found to be 1.38 nM. The compound further had a Ki at human A1 receptor of 7.74 nM. Moreover, in the data set with ddY mice, the “Manifestation rate of catalepsy” value is 1/7.
In the same order, the values of `CC(C)n1nc(-c2c(F)nc(N)nc2-c2ccccc2)ccc1=O` [Example 136, 6-(2-Amino-4-fluoro-6-phenyl-5-pyrimidinyl)-2-isopropyl-3(2H)-pyridazinone] are 231 to 232.5 °C, 1.41 nM, 1.75 nM and 0/7.
`COCCOc1ccc(-c2nc(N)ncc2-c2ccc(=O)n(C(C)C)n2)cc1` [Example 212, 6-{2-Amino-4-[4-(2-methoxyethoxy)phenyl]-5-pyrimidinyl}-2-isopropyl-3(2H)-pyridazinone] showed a melting point of 147 °C. On human A2a receptor, this compound had a Ki of 1.7 nM. The same compound registered a Ki at human A1 receptor of 2.36 nM. Moreover, in the data set on ddY mice, the “Manifestation rate of catalepsy” value was 0/7.
`CC(CO)n1nc(-c2cnc(N)nc2-c2ccccc2)ccc1=O` (stereo not shown) [Example 251, 6-(2-amino-4-phenyl-5-pyrimidinyl)-2-(2-hydroxy-1-methylethyl)-3(2H)-pyridazinone] showed a melting point of 222 to 223 °C.
On to `CC(C)n1nc(-c2c(Cl)nc(N)nc2-c2ccccc2)ccc1=O` [Example 252, 6-(2-amino-4-chloro-6-phenyl-5-pyrimidinyl)-2-isopropyl-3(2H)-pyridazinone], for which the melting point lay within 235 to 237 °C.
For the compound `Cc1nc(N)nc(-c2ccccc2)c1-c1ccc(=O)n(C(C)C)n1` [Example 253, 6-(2-amino-4-methyl-6-phenyl-5-pyrimidinyl)-2-isopropyl-3(2H)-pyridazinone], the melting point lay in the range of 213 to 215 °C.

(Values after patent US20050043315A1, “Aminopyrimidine compounds, processes for their preparation and pharmaceutical compositions containing them” (priority 2002, published 2005).)
